In publication PMC11083829, “Isolation, Characterization, Genome Annotation, and Evaluation of Hyaluronidase Inhibitory Activity in Secondary Metabolites of Brevibacillus sp. JNUCC 41: A Comprehensive Analysis through Molecular Docking and Molecular Dynamics Simulation” (International Journal of Molecular Sciences, 2024):

Molecular target: T1, hyaluronidase (HAase) (Bos taurus, UniProt Q2YDK3)
T1 construct: Hyaluronidase was obtained from bovine testes (Sigma-Aldrich, St. Louis, MO, USA); purchased Sigma-Aldrich; host or cells: bovine testes (tissue-derived)
T1 sequence (Q2YDK3 36-553): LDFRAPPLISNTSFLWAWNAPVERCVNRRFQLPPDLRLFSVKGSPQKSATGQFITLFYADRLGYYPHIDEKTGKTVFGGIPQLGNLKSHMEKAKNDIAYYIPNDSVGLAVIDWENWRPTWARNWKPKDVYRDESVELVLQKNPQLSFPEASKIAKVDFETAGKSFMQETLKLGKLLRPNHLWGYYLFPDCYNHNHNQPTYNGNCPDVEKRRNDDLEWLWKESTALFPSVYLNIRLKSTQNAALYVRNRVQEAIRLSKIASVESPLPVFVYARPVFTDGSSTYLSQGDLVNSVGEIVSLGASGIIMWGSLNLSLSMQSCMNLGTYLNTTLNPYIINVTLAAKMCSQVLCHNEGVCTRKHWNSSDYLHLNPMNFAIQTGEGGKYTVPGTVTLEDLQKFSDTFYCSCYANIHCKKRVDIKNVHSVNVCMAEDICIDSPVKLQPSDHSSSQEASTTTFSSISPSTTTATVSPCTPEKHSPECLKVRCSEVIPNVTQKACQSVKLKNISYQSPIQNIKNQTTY
Test: Hyaluronidase inhibitory activity enzymatic assay (HA substrate, DMAB, absorbance 540 nm)
Format: biochemical
Details: hyaluronidase from bovine testes; EGCG positive control
Source text: Luria–Bertani Broth (LB) and Lactobacilli MRS Broth (Becton, Franklin Lakes, NJ, USA) were used for the bacterial culture. Silica gel (Merck, Darmstadt, Germany) and Sephadex LH-20 gel (Sigma-Aldrich, St. Louis, MO, USA) were used for chromatographic separations. Thin-layer chromatography (TLC) plates (Merck, Darmstadt, Germany) were used for analytical purposes. Hyaluronidase was obtained from bovine testes (Sigma-Aldrich, St. Louis, MO, USA). Nuclear magnetic resonance (NMR) spectrums were obtained using JNM-ECX 400 (FT-NMR system, 400 MHz, JEOL Co., Akishima, Japan).
In the enzymatic assay, 5 μL of hyaluronidase enzyme and 12.5 mM CaCl2 samples at varying concentrations were added to a 96-well plate. The samples were reacted for 20 min and incubated at 37 °C. After the initial incubation, 25 μL of the substrate solution (HA at a concentration of 2.4 mg/mL) was added. The reaction mixture was incubated again at 37 °C for 40 min. Then, 5 μL of 0.4 N NaOH and 5 μL of 0.4 M potassium tetraborate were added to the mixture, followed by incubation at 100 °C for 3 min. After cooling, 150 μL of DMAB solution (p-dimethylaminobenzaldehyde + acetic acid + 10 N HCL) was added to the reaction mixture. The absorbance of the reaction mixture was measured at 540 nm. Epigallocatechin gallate (EGCG) was used as a positive control in this assay.

Row | Compound | IC50 [µM]
1 | O=C(O[C@@H]1Cc2c(O)cc(O)cc2O[C@@H]1c1cc(O)c(O)c(O)c1)c1cc(O)c(O)c(O)c1 [EGCG, Epigallocatechin gallate] | 172
2 | COC(=O)Cc1c[nH]c2ccccc12 [Methyl indole-3-acetate, methyl indole-3-acetate] | 344
